Experimental data as given in patent US8703754B2, “6-amino-2-{[(1S)-1-methylbutyl]oxy}-9-[5-(1-piperidinyl)-7,9-dihydro-8H-purin-8-one maleate” (GlaxoSmithKline LLC, priority 2010, dated 2014).

Columns and labels:
[1] = Stability testing under ICH Q1A(R2) and Q1B conditions; type: physicochemical; conditions: ICH Q1A(R2) stability and Q1B photostability conditions
Interferon-α [2] = test: Induction of Interferon-α using fresh human PBMCs; type: cell-based; conditions: PBMC, 24 hr, relative to 2 μM resiquimod control, read-out: mean pEC50 for induction of IFN-α (converted)
Experimental: (§1) Assay for the Induction of Interferon-α and TNF-α Using Fresh Human Peripheral Blood Mononuclear Cells (PBMCs)
(§2) 1 μL of test compound was transferred into 96-well tissue culture plates using a Biomek FX. Each compound was assayed in duplicate for each donor. Each plate contained a dilution series of the TLR7/8 agonist resiquimod as standard and Column 11 contained 1 μL of 200 μM resiquimod (giving a 2 μM final concentration, used to define the approximate maximal response to resiquimod).
(§3) Blood samples from two human donors were collected into sodium heparin (10 U/mL). 25 mL volumes of whole blood were overlaid onto 15 mL Histopaque in Leucosep tubes which were centrifuged at 800 g for 20 min and the band at the plasma/histopaque interface carefully removed. The collected cells were centrifuged at 2500 rpm for 10 min and the pellet resuspended in 10 mL of media (RPMI 1640 (Low endotoxin) supplemented with 10% v/v foetal calf serum (FCS, low endotoxin) 100 U/mL penicillin G, 100 μg/mL streptomycin, 10 mM L-glutamine and 1× non-essential amino acids). A 1:20 dilution of the cells was prepared using trypan blue and the cells counted using a haemocytometer.
(§4) Incubation and Assays for Interferon-α and TNF-α

Interferon-α [3] = test: Induction of Interferon-α following intranasal dosing in the mouse; type: in vivo; conditions: female BALB/c mice, 2 hours after dosing, ELISA
Experimental: Assay for the Induction of Interferon-α Following Intranasal Dosing in the Mouse
The compound of Reference Example 1 was dissolved in 0.2% Tween 80 in saline and administered intranasally (5 μL in total between the nostrils) to female BALB/c mice (n=6) under general anaesthesia. Animals were euthanased 2 hours after dosing and a terminal blood sample was taken and serum levels of Interferon-a measured using an ELISA assay.

Interferon-α [4] = test: Induction of Interferon-α using cryopreserved human PBMCs; type: cell-based; conditions: PBMC, 24 hours, normalised to 1 μM resiquimod and DMSO, read-out: mean pEC50 for induction of IFN-α (converted)
Experimental: Assay for the Induction of Interferon-α Using Cryopreserved Human Peripheral Blood Mononuclear Cells (PBMCs)
Serial 2-fold dilutions with DMSO were prepared and 0.25 μl dispensed into 384-well clear Greiner polypropylene plates.
Blood samples of up to 200 mL were obtained from healthy human donors. Whole blood in 25 mL volumes was overlaid onto 15 mL Ficoll gradients in Leucosep tubes, and centrifuged at 1000 g for 20 min. Cells in the band at the plasma/histopaque interface were carefully removed and washed twice with PBS (centrifuged at 400 g for 5 min to harvest). The final pellet was resuspended in freezing medium (90% Heat-inactivated serum, 10% DMSO) to a cell concentration of 4×10^7 cells/mL. The resuspended cells were then cryopreserved (frozen) using a rate controlled freezer, and stored at −140° C. for up to 4 months.
Incubation and Assay for Interferon-α
Immediately prior to assay, vials of cryopreserved (frozen) PBMCs were thawed rapidly in a water bath at 37° C. A 1:10 dilution of the cells in trypan blue was prepared and counted. […]
A multi-isoform immunoassay was used to quantify IFN-α in PBMC supernatants. […] Following three washes with PBS, 30 μl of ×2 T buffer (MSD) was added to each well and the plate was read on an MSD Sector 6000 plate reader. […]

IL-13 = test: Allergen-driven cytokine assay using fresh human PBMCs from atopic volunteers (IL-13); type: cell-based; conditions: 0.04 μM; PBMCs from three allergic donors, 10 ug/mL Timothy Grass antigen, up to 6 days
Experimental: (§5) Allergen-driven Cytokine Assay Using Fresh Human Peripheral Blood Mononuclear Cells (PBMCs) from Atopic Volunteers
(§6) An assay based on co-culture of atopic human donor derived peripheral blood mononuclear cells (PBMCs) with allergen and test compounds was developed. After 5-6 days culture, cell supernatants were assayed for a range of cytokines.
(§7) Each compound was assayed in triplicate at all concentrations.
(§8) Defibrinated human blood from volunteers known to be allergic to Timothy grass was centrifuged at 2500 rpm for 15 minutes. The upper layer of serum was collected and heat-inactivated at 56° C. for 30 minutes (HI-autologous serum). The lower layer of cells was resuspended in 50 mL PBS (+Ca +Mg), 25 mL diluted blood were overlaid onto 20 mL Lymphoprep in 50 ml tubes then centrifuged at 2500 rpm for 20 minutes at RT. The band at the serum/Lymphoprep interface was carefully removed. The collected cells were washed with PBS and re-suspended at 4×10^6 per mL in growth medium with HI-autologous serum. PBMCs were seeded at 0.4×10^6 cells per well in flat-bottomed 96 well plates in the presence of 10 ug/mL Timothy Grass antigen (Alk Abello) and test compounds at appropriate concentrations in a total volume of 200 μL.
(§9) Incubation and Cytokine Assays
(§10) Plates were incubated at 37° C. in 5% CO2 for up to 6 days. The cell medium from each well was harvested and stored at −20° C. prior to analysis.

IL-5 = test: Allergen-driven cytokine assay using fresh human PBMCs from atopic volunteers (IL-5); type: cell-based; conditions: 0.04 μM; PBMCs from three allergic donors, 10 ug/mL Timothy Grass antigen, up to 6 days
Experimental: as §5, §6, §7, §8, §9, §10

TNF-α = test: Induction of TNF-α using fresh human PBMCs; type: cell-based; conditions: PBMC, 24 hr, relative to 2 μM resiquimod control, read-out: mean pEC50 for induction of TNF-α (converted)
Experimental: as §1, §2, §3, §4

| Structure (SMILES) | degradation under stability testing [1] | EC50 (Interferon-α [2]) [nM] | mean serum levels of Interferon-α (Interferon-α [3]) [pg/mL] | EC50 (Interferon-α [4]) [nM] | reduction of production of the Th2 cytokine IL-13 compared to the allergen control (IL-13) [%] | reduction of production of the Th2 cytokine IL-5 compared to the allergen control (IL-5) [%] | EC50 (TNF-α) [nM] |
| --- | --- | --- | --- | --- | --- | --- | --- |
| CCC[C@H](C)Oc1nc(N)c2[nH]c(=O)n(CCCCCN3CCCCC3)c2n1.O=C(O)/C=C\C(=O)O [Example 2, 6-Amino-2-{[(1S)-1-methylbutyl]oxy}-9-[5-(1-piperidinyl)pentyl]-7,9-dihydro-8H-purin-8-one, Maleate Salt] | no significant degradation | – | – | – | – | – | – |
| CCC[C@H](C)Oc1nc(N)c2[nH]c(=O)n(CCCCCN3CCCCC3)c2n1 [Reference Example 1, 6-Amino-2-{[(1S)-1-methylbutyl]oxy}-9-[5-(1-piperidinyl)pentyl]-7,9-dihydro-8H-purin-8-one] | – | ≤ 1 | 21029 | < 5.01 | ≥ 50 | ≥ 50 | ≥ 316 |
